Assay results: US11702402B2, “Small molecules that block proteasome-associated ubiquitin receptor RPN13 function and uses thereof” (DANA-FARBER CANCER INSTITUTE, INC., priority 2018, dated 2023)
Entries after “also recorded” stand apart in the source; their conditions may differ.

What was measured:
[1] = test system: human MM.1S MM tumors; assay: Human MM xenograft model; type: in vivo; conditions: for host survival / tumor growth: MM.1S-bearing mice, i.p., WL40 14.7 μM/kg, RA190 26.8 μM/kg; for host survival: twice weekly; for tumor growth: twice weekly for 18 days
Description: FIG. 23B are Kaplan-Meier plots which show survival of mice. […] The lysates were subjected to the immunoblot analysis using anti-polyubiquitin, anti-cleaved-caspase-8, or anti-β-actin Abs. FIG. 23D show tumor sections from the vehicle control, and WL40-treated mice that were stained with anti-polyubiquitin, Ki67, caspase-3 (cleaved form), and CD31 antibodies. Scale bar, 10 μm.
Animal model studies were performed as described previously.^32, 33, 36 Briefly, CB17 SCID mice were subcutaneously inoculated with 5.0×10^6 MM.1S cells. When tumors were measurable (100 mm^3) at approximately 3 weeks after MM-cell injection, mice (10 mice/group) were treated on a twice-weekly schedule with vehicle alone, WL40, or RA190. Mice were euthanized when tumor volume reached institutional limit (2000 mm^3). All animal experiments protocols were approved by and conformed to the relevant regulatory standards of the Institutional Animal Care and Use Committee at the Dana-Farber Cancer Institute.
Tumors were harvested from WL40-treated and control animals. Tumor sections were fixed and paraffin embedded for immunostaining to detect growth inhibition (Ki67), apoptosis (cleaved caspase-3), poly-ubiquitination (PolyU), and angiogenesis (CD31), as described previously.^32, 34 Tumor protein lysates from control vehicle- and WL40-treated mice were analyzed for caspase-8, poly-Ubiquitin or β-actin level using immunoblot analyses.
To fully understand the therapeutic potential of the RPN13 degrader, the in vivo efficacy of WL40 was evaluated using the human plasmacytoma xenograft mouse model.^3, 34 This model has been useful in validating novel anti-MM therapies bortezomib, carfilzomib, ixazomib, lenalidomide, and pomalidomide, which have translated to clinical trials and FDA approval.

[2] = test system: MM.1S CRBN KO cells; assay: MM.1S CRBN KO cell viability; type: cell-based, Human
Excerpt: FIGS. […] Wst-1 assay was used to test cell viability.
The experiment was repeated twice and JQRA concentration was increased (as indicated) at the second time.

[3] = test system: multiple myeloma cell lines; assay: Viability of a panel of multiple myeloma cell lines; type: cell-based, Human
Excerpt: FIGS. […] Wst-1 assay was used to test cell viability. FIGS. 6A and 6B show the effect of exemplary bifunctional compounds WL40 and WL44 on multiple myeloma cell lines.

[4] = test system: Ub-tagged GFP that is constitutively targeted for proteasomal degradation; assay: Ub-GFP (GFPu-1) reporter cell line immunoblot; type: cell-based; conditions: 16 hours
Description: Cell lysates were loaded on SDS-PAGE, transferred to PVDF membrane, then immunoblotted with anti-GFP, and anti beta-actin antibodies.
In FIG. 18, a reporter cell line expressing Ub-tagged GFP that is constitutively targeted for proteasomal degradation was treated with RA190 ([…]); and JQRA ([…]) for 16 hours. Cell lysates were loaded on SDS-PAGE, transferred to PVDF membrane, then immunoblotted with anti-GFP, and anti-alpha tubulin antibodies.
FIGS. 19A-19I show the exemplary design and characterization of exemplary Rpn13 degrader WL40. […] WL40 was created by linking the Rpn13 inhibitor RA190 to the IMiD thalidomide as a ligand for the CRBN E3 ligase via a PEG linker. […] FIG. 19C is a schematic cartoon for the novel AlphaScreen assay to measure the binding activity of inhibitor with RPN13 proteins. […] FIG. 19E depicts immunoblot analysis of multiple myeloma 1S (MM.1S) cells, which were treated with WL40 or RA190 at the indicated concentrations and time periods; protein lysates were subjected to the immunoblot analysis using anti-Rpn13 or anti-tubulin Abs. FIG. 19F depicts flow cytometry analysis of MM.1S cells, which were treated with DMSO control, WL40 (400 nM), or RA190 (500 nM) for 16 hours; cells were then washed and stained with Rpn13 Ab conjugated with AlexaFluor-647, followed by the flow cytometry analysis. Isotype Ab conjugated to AlexaFluor-647 was used as control for non-specific binding. Data was quantified using FACS Diva (BD Biosciences, USA) and FlowJo (FlowJo LLC, USA). FIG. 19G depicts immunoblot analysis of MM.1S-CRBN KO cells, which were treated with WL40 (400 nM) or RA190 (500 nM) for 16 hours; protein lysates were subjected to the immunoblot analysis using anti-Rpn13 or anti β-actin Abs. […]
To confirm that CRBN presence is a prerequisite for the function of WL40 in cells, CRBN-knockout (KO) MM.1S cells^27, 38 were utilized, and the effect of WL40 on Rpn13 degradation was examined. […] GFPu-1 cells were treated with WL40, and GFP levels were then analyzed using immunoblotting. […]

[5] = test system: MM.1S cells; assay: MM.1S cell viability (WST); conditions: for combination effect on viability (isobologram, CI): 48 hours, WST
Description: FIGS. 4A and 4B show multiple myeloma 1S (MM.1S) cells treated with RA190, WL40, and WL44 at the indicated concentrations for 24 hours. Wst-1 assay was used to test cell viability.
In FIG. 13B, multiple myeloma cells (MM.1S) were treated with RA190 or compound JQRA at the indicated concentrations for 72 hours, and the percentage of viable cells was measured.
Purified CD138^+ patient MM cells, which were treated with DMSO control or WL40 at indicated concentrations for 48 hours, followed by assessment for cell viability using CellTiter-Glo assay (mean±SD of triplicate cultures; p<0.001). […] Normal PBMCs from healthy donors were treated with DMSO control or WL40 at indicated concentrations for 48 hours, and then analyzed for cell viability using CellTiter-Glo assay (mean±SD of quadruplicate cultures). […] MM.1S cells were cultured with or without patient BMSCs in the presence or absence of WL40 for 48 hours, and cell proliferation was measured by WST assay (mean±SD; n=3; p<0.0001). […] MM.1S cells were cultured with or without patient pDCs in the presence or absence of WL40 for 48 hours, and cell proliferation was measured by WST assay (mean±SD; n=3; p<0.0001).

Cl.N[C@@H](Cc1ccccc1)C(=O)N1C/C(=C/c2ccc(Cl)c(Cl)c2)C(=O)/C(=C\c2ccc(Cl)c(Cl)c2)C1 [RA190, reference compound]
host survival [1]: extends mice survival | tumor growth [1]: attenuates MM tumor progression | cytotoxicity (percentage of viable cells) ([2]; CRBN-KO cells, 72 hours): more robust MM cytotoxicity | cytotoxicity (percentage of viable cells) ([3]; different multiple myeloma cell lines, 72 hours): stronger cytotoxicity than JQRA | Ub-GFP levels / proteasome function (immunoblot) ([4]; 312 μM, 625 μM, 1250 μM, 2500 μM, 5000 μM): blocks proteasome function | cytotoxicity (percentage of viable cells) ([5]; 72 hours): stronger MM cytotoxicity compared to exemplary compound JQRA; also recorded: more robust MM cytotoxicity

O=C1CCC(N2C(=O)c3cccc(NCCOCCOCCOCCC(=O)N[C@@H](Cc4ccccc4)C(=O)N4C/C(=C\c5ccc(Cl)c(Cl)c5)C(=O)/C(=C/c5ccc(Cl)c(Cl)c5)C4)c3C2=O)C(=O)N1 (stereo partly drawn) [WL40]
host survival [1]: prolongs host survival | tumor growth [1]: inhibits xenografted human MM cell growth; also recorded: more potent in vivo anti-MM activity | tolerability ([1]; WL40-treated mice): well tolerated | body weight loss ([1]; WL40-treated mice (data not shown)): no significant weight loss | PolyUb proteins in harvested tumors ([1]; relative to tumors from control mice): increased accumulation of PolyUb proteins | angiogenesis in harvested tumors (CD31) ([1]; tumor sections): blocks angiogenesis | apoptosis in harvested tumors (cleaved caspase-3) ([1]; tumor sections): induces apoptosis | proliferation in harvested tumors (Ki67) ([1]; tumor sections): decreases proliferation | cell viability ([2]; MM.1S-CRBN KO, 24 hours, Wst-1): decrease cell viability | cell viability IC50 ([3]; multiple myeloma cell lines, 48 hours, Wst-1): high IC50 in several cell lines | Ub-GFP levels / proteasome function (immunoblot) ([4]; WL40, WL44 0.5-2.0 μM, RA190 1 μM): block proteasome function; also recorded: increases GFP levels | cell viability IC50 ([5]; 24 hours, Wst-1): lower IC50 compared to compound RA190 | combination effect on viability (isobologram, CI) ([5]; WL40 plus bortezomib): synergistic anti-MM activity | combination effect on viability (isobologram, CI) ([5]; WL40 plus lenalidomide): synergistic anti-MM activity | combination effect on viability (isobologram, CI) ([5]; WL40 plus pomalidomide): synergistic anti-MM activity
